Like-named read-outs stand apart in the source and are kept apart here.
Columns and labels:
[1] = tested on: 2019 novel coronavirus (SARS-CoV-2) original strain; assay: Replication inhibitory activity against SARS-CoV-2 original strain in Vero E6 cells (qRT-PCR); format: cell-based; details: Severe acute respiratory syndrome coronavirus 2, Vero C1008; Vero E6 cells, MOI 0.01, 24 h p.i., viral copy number by qRT-PCR; read-out: Inhibition against viral replication of the original strain EC50
HCoV OC43 virus = assay: Inhibition against HCoV OC43 virus replication; format: cell-based, human coronavirus HCoV OC43; details: Betacoronavirus 1, OC43
[2] = biological target: novel coronavirus envelope protein (2-E) ion channel (Severe acute respiratory syndrome coronavirus 2, UniProt P0DTC4); assay: Novel coronavirus envelope protein (2-E) ion channel activity test, planar lipid bilayer (BLM); format: biochemical, SARS-CoV-2; details: room temperature, 1, 10, 50, 100 μM, read-out: Inhibition against 2-E ion channels IC50
Sequence of novel coronavirus envelope protein (2-E) ion channel (P0DTC4 whole entry, looked up): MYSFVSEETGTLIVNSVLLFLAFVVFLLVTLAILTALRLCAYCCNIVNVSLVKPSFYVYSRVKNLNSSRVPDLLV

hERG potassium channel = biological target: T1, hERG potassium channel (Homo sapiens, UniProt Q12809); assay: hERG potassium channel whole-cell membrane clamp in CHO cells; format: cell-based; details: CHO cells stably expressing hERG, whole-cell membrane clamp
T1 construct: expressed in transfected cells
T1 sequence (Q12809 whole entry): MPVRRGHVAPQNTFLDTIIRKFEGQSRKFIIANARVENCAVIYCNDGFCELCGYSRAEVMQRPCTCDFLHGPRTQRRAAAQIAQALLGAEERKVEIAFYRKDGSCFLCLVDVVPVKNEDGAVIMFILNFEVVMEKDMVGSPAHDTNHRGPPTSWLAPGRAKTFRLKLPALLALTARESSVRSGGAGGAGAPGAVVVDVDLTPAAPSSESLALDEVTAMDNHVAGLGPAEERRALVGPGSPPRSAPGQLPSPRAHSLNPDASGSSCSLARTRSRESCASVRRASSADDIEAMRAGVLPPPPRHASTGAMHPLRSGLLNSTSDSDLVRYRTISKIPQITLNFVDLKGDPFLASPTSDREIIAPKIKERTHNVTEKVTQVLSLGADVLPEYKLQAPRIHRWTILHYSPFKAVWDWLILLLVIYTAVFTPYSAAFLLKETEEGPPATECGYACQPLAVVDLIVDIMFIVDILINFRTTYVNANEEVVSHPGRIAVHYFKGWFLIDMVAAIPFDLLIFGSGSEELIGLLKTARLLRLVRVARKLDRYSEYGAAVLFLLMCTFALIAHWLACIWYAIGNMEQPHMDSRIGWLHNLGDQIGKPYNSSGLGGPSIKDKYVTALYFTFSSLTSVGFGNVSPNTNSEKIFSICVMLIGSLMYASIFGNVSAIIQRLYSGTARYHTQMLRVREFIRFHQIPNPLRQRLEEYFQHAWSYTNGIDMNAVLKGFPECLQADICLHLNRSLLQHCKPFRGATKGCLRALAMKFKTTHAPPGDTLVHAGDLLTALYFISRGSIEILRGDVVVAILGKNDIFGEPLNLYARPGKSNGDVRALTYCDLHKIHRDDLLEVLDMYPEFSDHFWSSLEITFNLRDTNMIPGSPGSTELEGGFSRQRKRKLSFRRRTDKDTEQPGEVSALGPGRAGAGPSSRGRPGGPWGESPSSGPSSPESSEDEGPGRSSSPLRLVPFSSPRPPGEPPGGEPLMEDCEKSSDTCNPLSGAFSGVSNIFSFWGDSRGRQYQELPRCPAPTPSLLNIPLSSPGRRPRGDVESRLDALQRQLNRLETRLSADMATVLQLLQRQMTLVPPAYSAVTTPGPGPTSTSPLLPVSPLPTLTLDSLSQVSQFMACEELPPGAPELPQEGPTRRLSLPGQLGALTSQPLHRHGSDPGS
Experimental: Compounds were given for at least 1 min for each tested concentration, and at least 2 cells (n≥2) were tested per concentration.

[3] = Cytotoxicity test on Vero E6 cells (CCK8); format: cell-based; details: African green monkey; Vero E6 cells, CCK8 kit
Experimental: (§1) In this embodiment, the half toxicity concentration of each embodiment on Vero E6 cells was determined by CCK8 kit analysis (CC50).

Raw 264.7 cells [4] = assay: Cell viability in LPS-induced inflammation model of Raw 264.7 cells (CCK-8); format: cell-based; details: 1 μg/ml LPS, 1 μM compound, 16 hours
Experimental: In this example, the effect of the compounds of the present invention on the inflammation level of the LPS-induced inflammation model of Raw 264.7 cells was analyzed by cell viability in combination with inflammatory factors; cell viability was analyzed by CCK-8 assay; and mRNA expression levels of inflammation-related indicators were detected by a real-time quantitative PCR (Q-PCR) method. Raw 264.7 cells were purchased from ATCC; CCK-8 kit was purchased from Meilunbio, item no. MA0218-3; LPS was purchased from Sigma, item no. L2630.
(§2) Experimental methods: first, 8000 cells/well Raw 264.7 cells were placed in 96-well plates and incubated overnight. On the second day, 0.1% DMSO was added to the control cells, 1 μg/ml LPS as well as 0.1% DMSO was added to the model group, 1 μg/ml LPS as well as 1 μM of the compounds (oxyacanthine hydrochloride (oxy), 1, 2, tetrandrine (tet), 3, 4, 6, 58) was added to the treatment group, and the 96-well plates were sterilized and incubated in a constant temperature incubator for 16 hours. Finally, the viability of the cells was detected using the CCK-8 kit.

Raw 264.7 cells [5] = assay: Cell viability in TNF-α induced inflammation model of Raw 264.7 cells (CCK-8); format: cell-based; details: 10 ng/ml TNF-α, 1 μM compound, 16 hours
Experimental: In this embodiment, the effect of compounds on TNF-α-induced inflammation levels in Raw 264.7 cells was analyzed by cell viability combined with inflammatory factor expression levels; cell viability was analyzed by CCK-8 assay; and mRNA expression levels of inflammation-associated indicators were detected by real-time quantitative PCR (Q-PCR) method. Raw 264.7 cells were purchased from ATCC, CCK-8 kit was purchased from Meilunbio, item number MA0218-3, TNF-α was purchased from Merck, item no. GF314.
as §2, with “10 ng/ml TNF-α” for “1 μg/ml LPS”

ALM12 hepatocytes = assay: Anti H2O2-induced necrotic injury assay in ALM12 hepatocytes (microscopy, CCK-8); format: cell-based; details: 2 mM H2O2, 1 μM compound, 3 hours, microscope and CCK-8
Experimental: In this example, the effect of the compounds of the present invention on the level of necrotic injury induced by H2O2 in ALM12 hepatocytes was analyzed by microscopic morphological observations, cell viability in combination with cell death-associated molecules. Cell viability was analyzed by CCK-8 assay. ALM12 cells were cultured in 1640 medium (gibco, c11995500BT)+10% FBS (gibco, 10099141C) in a constant temperature incubator at 37° C., 5% CO2; the CCK-8 kit was purchased from Meilunbio, item no. MA0218-3; H2O2 was purchased from Sinopharm Chemical Reagent Co. item no. 10011208.
Experimental methods: first, 8000 cells/well ALM12 cells were placed in 96-well plates and incubated overnight. On the second day, 0.1% DMSO was added to the control cells, 2 mM H2O2 as well as 0.1% DMSO was added to the model group, 2 mM H2O2 as well as 1 μM of the compounds (oxy, 1, 2, tet, 3, 4, 6, 58) was added to the treatment group, and the 96-well plates were sterilized and incubated in a constant temperature incubator for 3 hours. Finally, cell injury and growth were observed using a microscope; the viability of the cells was detected by CCK-8 kit.

Vero E6 cells = assay: Cytotoxicity test on Vero E6 cells (CCK8); format: cell-based
Experimental: as §1

| SMILES | EC50 [1] [µM] | IC50 (hERG potassium channel) [µM] | IC50 [3] [µM] | further results |
| --- | --- | --- | --- | --- |
| COc1cc2c3cc1Oc1c(OC)c(OC)cc4c1[C@H](Cc1ccc(cc1)Oc1cc(ccc1C#N)C[C@H]3N(C)CC2)N(C)CC4 [Compound 1] | 0.1 to 1 | 6.4 | 10 to 30 | EC50 (HCoV OC43 virus): 4.2 µM; IC50 [2]: < 10 µM; cell viability in LPS-induced inflammation model (Raw 264.7 cells [4]): did not affect cell viability; cell viability in TNF-α-induced inflammation model (Raw 264.7 cells [5]): did not affect cell viability; alleviation of H2O2-induced ALM12 hepatocyte injury (ALM12 hepatocytes): significantly alleviated |
| CNC(=O)c1ccc2cc1Oc1ccc(cc1)C[C@H]1c3c(cc(OC)c(OC)c3Oc3cc4c(cc3OC)CCN(C)[C@@H]4C2)CCN1C [Compound 5] | 1 to 10 | 9.4 | > 50 | cytotoxicity on Vero E6 cells compared with oxyacanthine hydrochloride (Vero E6 cells; Vero E6 cells): weaker cytotoxicity than oxyacanthine hydrochloride |
| COc1cc2c3cc1Oc1c(OC)c(OC)cc4c1[C@H](Cc1ccc(cc1)Oc1cc(ccc1C(=O)O)C[C@H]3N(C)CC2)N(C)CC4 [Compound 7] | – | > 40 | > 50 | IC50 [2]: 10 to 30 µM |
| COc1cc2c3cc1Oc1c(OC)c(OC)cc4c1[C@H](Cc1ccc(cc1)Oc1cc(ccc1CO)C[C@H]3N(C)CC2)N(C)CC4 [Compound 9] | 0.5 to 1.5 | – | > 50 | EC50 (HCoV OC43 virus): 3 µM; IC50 [2]: 10 to 30 µM |
| COc1cc2c3cc1Oc1c(OC)c(OC)cc4c1[C@H](Cc1ccc(cc1)Oc1cc(cc5[nH]c(=O)oc15)C[C@H]3N(C)CC2)N(C)CC4 [Compound 17] | 0.1 to 1 | – | 10 to 30 | – |
| COc1cc2c3cc1Oc1c(OC)c(OC)cc4c1[C@H](Cc1ccc(cc1)Oc1cc(ccc1C(C)=O)C[C@H]3N(C)CC2)N(C)CC4 [Compound 19] | 0.5 to 1.5 | – | 30 to 50 | – |
| COc1cc2c3cc1Oc1c(OC)c(OC)cc4c1[C@H](Cc1ccc(cc1)Oc1cc(ccc1C(=O)NC1CCCC1)C[C@H]3N(C)CC2)N(C)CC4 [Compound 22] | 0.5 to 1.5 | – | 10 to 30 | – |
| COc1cc2c3cc1Oc1c(OC)c(OC)cc4c1[C@H](Cc1ccc(cc1)Oc1cccc(c1)C[C@H]3N(C)CC2)N(C)CC4 [Compound 33] | 0.1 to 1 | > 40 | 10 to 30 | EC50 (HCoV OC43 virus): 4.1 µM |
| C=C(C)c1ccc2cc1Oc1ccc(cc1)C[C@H]1c3c(cc(OC)c(OC)c3Oc3cc4c(cc3OC)CCN(C)[C@@H]4C2)CCN1C [Compound 34] | 0.5 to 1.5 | – | 10 to 30 | IC50 [2]: < 10 µM |
| COc1cc2c3cc1Oc1c(OC)c(OC)cc4c1[C@H](Cc1ccc(cc1)Oc1cc(ccc1C)C[C@H]3N(C)CC2)N(C)CC4 [Compound 35] | 1 to 5 | – | 10 to 30 | – |
| CCCCCNC(=O)c1ccc2cc1Oc1ccc(cc1)C[C@H]1c3c(cc(OC)c(OC)c3Oc3cc4c(cc3OC)CCN(C)[C@@H]4C2)CCN1C [Compound 37] | 1 to 5 | > 20 | 10 to 30 | IC50 [2]: < 10 µM |
| COc1cc2c3cc1Oc1c(OC)c(OC)cc4c1[C@H](Cc1ccc(cc1)Oc1cc(ccc1C1CC1)C[C@H]3N(C)CC2)N(C)CC4 [Compound 38] | 1 to 5 | – | 10 to 30 | – |
| COc1cc2c3cc1Oc1c(OC)c(OC)cc4c1[C@H](Cc1ccc(cc1)Oc1cc(ccc1C(C)O)C[C@H]3N(C)CC2)N(C)CC4 (stereo partly shown) [Compound 40] | 0.1 to 1 | – | 30 to 50 | – |
| COc1cc2c3cc1Oc1c(OC)c(OC)cc4c1[C@H](Cc1ccc(cc1)Oc1cc(ccc1C(=O)Nc1ccccc1)C[C@H]3N(C)CC2)N(C)CC4 [Compound 45] | 1 to 5 | > 20 | 10 to 30 | IC50 [2]: < 10 µM |
| COc1cc2c3cc1Oc1c(OC)c(OC)cc4c1[C@H](Cc1ccc(cc1)Oc1cc(ccc1C(=O)NC(C)C)C[C@H]3N(C)CC2)N(C)CC4 [Compound 48] | 0.1 to 1 | – | 10 to 30 | – |
| COc1cc2c3cc1Oc1c(OC)c(OC)cc4c1[C@H](Cc1ccc(cc1)Oc1cc(ccc1C(=O)NC15CC6CC(CC(C6)C1)C5)C[C@H]3N(C)CC2)N(C)CC4 [Compound 49] | 0.1 to 1 | – | 5 to 10 | – |
| COc1cc2c3cc1Oc1c(OC)c(OC)cc4c1[C@H](Cc1ccc(cc1)Oc1cc(ccc1C(=O)NC1CCC1)C[C@H]3N(C)CC2)N(C)CC4 [Compound 50] | 0.1 to 1 | 4.5 | 30 to 50 | – |
| COc1cc2c3cc1Oc1c(OC)c(OC)cc4c1[C@H](Cc1ccc(cc1)Oc1cc(ccc1C(=O)Nc1cccnc1)C[C@H]3N(C)CC2)N(C)CC4 [Compound 51] | 0.1 to 1 | – | 10 to 30 | – |
| COc1ccc(NC(=O)c2ccc3cc2Oc2ccc(cc2)C[C@H]2c4c(cc(OC)c(OC)c4Oc4cc5c(cc4OC)CCN(C)[C@@H]5C3)CCN2C)cc1 [Compound 52] | 0.1 to 1 | – | 10 to 30 | – |
| COc1cc2c3cc1Oc1c(OC)c(OC)cc4c1[C@H](Cc1ccc(cc1)Oc1cc(ccc1C(=O)C1CC1)C[C@H]3N(C)CC2)N(C)CC4 [Compound 54] | 1 to 5 | – | 10 to 30 | – |
| COc1cc2c3cc1Oc1c(OC)c(OC)cc4c1[C@H](Cc1ccc(cc1)Oc1cc(ccc1C(=O)NCCOCCO)C[C@H]3N(C)CC2)N(C)CC4 [Compound 55] | 1 to 5 | > 40 | > 100 | – |
| COc1cc2c3cc1Oc1c(OC)c(OC)cc4c1[C@@H](Cc1ccc(O)c(c1)Oc1ccc(cc1)C[C@@H]3N(C)CC2)N(C)CC4 [berbamine, reference compound] | – | – | – | cytotoxicity (background statement) (Vero E6 cells; inventors' screening of natural products): high cytotoxicity |
| COc1ccc2cc1Oc1ccc(cc1)C[C@H]1c3cc(c(OC)cc3CCN1C)Oc1c(OC)c(OC)cc3c1[C@H](C2)N(C)CC3 [tetrandrine, reference compound] | – | – | – | cytotoxicity (background statement) (Vero E6 cells): high cytotoxicity |

Reference: patent US20250296937A1, “CYCLIC BISBENZYL TETRAHYDROISOQUINOLINE COMPOUND, AND PREPARATION METHOD THEREFOR AND USE THEREOF” (Shanghai Institute of Materia Medica, Chinesse Academy of …, priority 2021, published 2025)
